According to PubChem BioAssay AID248 (DTP/NCI, 2004):
Values joined by “and” are separate entries in the source; they are usually repeats but may differ in a detail not shown here. Equal values may be shown once. Inconclusive results and toxic doses are left out. Peptide text beside a SMILES is read from it. * marks the point of attachment. ONp = O=[N+]([O-])c1ccc(O*)cc1; Cbz = O=C(OCc1ccccc1)*

Tested on: L1210 leukemia ip in BDF1 mice, survival T/C
Experiment: NCI In Vivo Anticancer Drug Screen. Data for tumor model L1210 Leukemia (intraperitoneal) in B6D2F1 (BDF1) mice
Details: endpoint: mean survival time, higher = longer survival
Method in brief: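 Antitumor effect is assessed in tumor-bearing animals. Survival in the compound arm is compared with a vehicle-dosed control arm and expressed as their quotient.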

[1] = dose: 100.0 mg/kg/injection, schedule: Q01DX009 (ip), vehicle: saline with Tween-80
[2] = dose: 100.0 mg/kg/injection, schedule: Q04DX003 (ip), vehicle: saline with Tween-80
[3] = dose: 200.0 mg/kg/injection, schedule: Q01DX009 (ip), vehicle: saline with Tween-80
[4] = dose: 200.0 mg/kg/injection, schedule: Q04DX003 (ip), vehicle: saline with Tween-80
[5] = dose: 400.0 mg/kg/injection, schedule: Q04DX003 (ip), vehicle: saline with Tween-80
[6] = dose: 50.0 mg/kg/injection, schedule: Q01DX001 (ip), vehicle: saline
[7] = dose: 100.0 mg/kg/injection, schedule: Q01DX001 (ip), vehicle: saline
[8] = dose: 200.0 mg/kg/injection, schedule: Q01DX001 (ip), vehicle: saline
[9] = dose: 400.0 mg/kg/injection, schedule: Q01DX001 (ip), vehicle: saline
[10] = dose: 100.0 mg/kg/injection, schedule: Q01DX001 (ip), vehicle: Klucel (hydroxypropylcellulose) (HPC)
[11] = dose: 100.0 mg/kg/injection, schedule: Q01DX009 (ip), vehicle: Klucel (hydroxypropylcellulose) (HPC)
[12] = dose: 200.0 mg/kg/injection, schedule: Q01DX001 (ip), vehicle: Klucel (hydroxypropylcellulose) (HPC)
[13] = dose: 200.0 mg/kg/injection, schedule: Q01DX009 (ip), vehicle: Klucel (hydroxypropylcellulose) (HPC)
[14] = dose: 400.0 mg/kg/injection, schedule: Q01DX001 (ip), vehicle: Klucel (hydroxypropylcellulose) (HPC)
[15] = dose: 400.0 mg/kg/injection, schedule: Q01DX009 (ip), vehicle: Klucel (hydroxypropylcellulose) (HPC)
[16] = dose: 400.0 mg/kg/injection, schedule: Q01DX009 (ip), vehicle: saline with Tween-80
[17] = dose: 50.0 mg/kg/injection, schedule: Q01DX009 (ip), vehicle: saline with Tween-80
[18] = dose: 100.0 mg/kg/injection, schedule: Q04DX003 (ip), vehicle: saline
[19] = dose: 200.0 mg/kg/injection, schedule: Q04DX003 (ip), vehicle: saline
[20] = dose: 400.0 mg/kg/injection, schedule: Q04DX003 (ip), vehicle: saline
[21] = dose: 100.0 mg/kg/injection, schedule: Q04DX003 (ip), vehicle: Klucel (hydroxypropylcellulose) (HPC)
[22] = dose: 200.0 mg/kg/injection, schedule: Q04DX003 (ip), vehicle: Klucel (hydroxypropylcellulose) (HPC)
[23] = dose: 400.0 mg/kg/injection, schedule: Q04DX003 (ip), vehicle: Klucel (hydroxypropylcellulose) (HPC)
[24] = dose: 100.0 mg/kg/injection, schedule: Q04DX002 (ip), vehicle: Klucel (hydroxypropylcellulose) (HPC)
[25] = dose: 100.0 mg/kg/injection, schedule: Q01DX001 (ip), vehicle: carboxymethylcellulose (CMC)
[26] = dose: 200.0 mg/kg/injection, schedule: Q01DX001 (ip), vehicle: carboxymethylcellulose (CMC)
[27] = dose: 400.0 mg/kg/injection, schedule: Q01DX001 (ip), vehicle: carboxymethylcellulose (CMC)

C=C(C)CNc1ccccc1
T/C [1]: 95 % of control | T/C [2]: 97 % of control | T/C [3]: 93 % of control | T/C [4]: 97 % of control | T/C [5]: 103 % of control

CC(=O)OCC1C(OC(C)=O)C(OC(C)=O)C(OC(C)=O)N1C(C)=O (stereo not given)
T/C [6]: 98 % of control | T/C [7]: 95 % of control | T/C [8]: 98 % of control | T/C [9]: 98 % of control

CCCCCCC1CCC(C(=O)O)CC1 (stereo not given)
T/C [10]: 96 % of control | T/C [11]: 98 % of control | T/C [12]: 97 % of control | T/C [13]: 98 % of control | T/C [14]: 97 % of control | T/C [15]: 89 % of control

CNC(=O)O/N=C(/SC)C(C)C
T/C (dose: 5.0 mg/kg/injection, schedule: Q01DX001 (ip), vehicle: saline): 100 % of control | T/C (dose: 10.0 mg/kg/injection, schedule: Q01DX001 (ip), vehicle: saline): 100 % of control

O=C1c2ccccc2S(=O)(=O)N1CC(O)COc1ccc(Cl)cc1 (stereo not given)
T/C [1]: 93 % of control | T/C [3]: 102 % of control | T/C [16]: 101 % of control

CC(C)C(Br)C(Br)c1ccccc1 (stereo not given)
T/C [17]: 96 % of control | T/C [1]: 102 % of control | T/C [3]: 96 % of control

COC1OC(C)CC(O)C1O (stereo not given)
T/C [18]: 97 % of control | T/C [19]: 103 % of control | T/C [20]: 109 % of control

O=C(CNC(=O)OCc1ccccc1)NCC(=O)Oc1ccc([N+](=O)[O-])cc1 (Cbz-Gly-Gly-ONp)
T/C [1]: 108 % of control | T/C [2]: 92 % of control | T/C [3]: 105 % of control | T/C [4]: 94 % of control | T/C [16]: 100 % of control | T/C [5]: 92 % of control

CC1=NN(c2ccc(S(=O)(=O)O)cc2)C(=O)/C1=C/C(C#N)C#N
T/C [6]: 105 % of control | T/C [7]: 98 % of control | T/C [21]: 92 % of control | T/C [8]: 108 % of control | T/C [22]: 105 % of control | T/C [9]: 108 % of control | T/C [23]: 94 % of control

CC(=O)OCC1OC(SP(C)C)C(OC(C)=O)C(OC(C)=O)C1OC(C)=O (stereo not given)
T/C [10]: 101 % of control | T/C [12]: 98 % of control | T/C [14]: 96 % of control

Cc1ccc(C(O)(c2ccccc2)C2C(c3ccccc3)N2C2CCCCC2)cc1 (stereo not given)
T/C (dose: 100.0 mg/kg/injection, schedule: Q04DX003 (ip), vehicle: saline sonified): 92 % of control | T/C (dose: 200.0 mg/kg/injection, schedule: Q04DX003 (ip), vehicle: saline sonified): 87 % of control | T/C (dose: 400.0 mg/kg/injection, schedule: Q04DX003 (ip), vehicle: saline sonified): 89 % of control

CCOc1cc(-c2nc(-c3ccc(N=Cc4ccc(N(CCCOS(C)(=O)=O)CCCOS(C)(=O)=O)cc4C)cc3)cs2)ccc1OCc1ccccc1
T/C [2]: 91 % of control | T/C [4]: 86 % of control | T/C [5]: 89 % of control

C[n+]1ccn(Cc2ccc([N+](=O)[O-])cc2)c1
T/C [2]: 171 % of control | T/C [4]: 90 % of control

Nc1cc(Cl)[nH]c(=O)n1
T/C (dose: 100.0 mg/kg/injection, schedule: Q01DX009 (ip), vehicle: gum acacia): 100 % of control | T/C (dose: 200.0 mg/kg/injection, schedule: Q01DX009 (ip), vehicle: gum acacia): 89 % of control

CCCc1ccc(C(=O)O)cc1
T/C [11]: 95 % of control | T/C [13]: 91 % of control | T/C [15]: 98 % of control

c1ccc2c[n+](CCc3c[nH]c4ccccc34)ccc2c1
T/C [24]: 100 % of control | T/C [21]: 96 % of control | T/C [22]: 104 % of control

N#CC(NC(N)=O)(c1ccccc1)c1ccccc1
T/C (dose: 50.0 mg/kg/injection, schedule: Q01DX001 (ip), vehicle: carboxymethylcellulose (CMC)): 91 % of control | T/C [25]: 107 % of control | T/C [26]: 96 % of control | T/C [27]: 91 % of control

CC(C)NCC1CCCCO1 (stereo not given)
T/C (dose: 55.0 mg/kg/injection, schedule: Q01DX Z (ip), vehicle: methylcellulose (MC)): 91 % of control | T/C (dose: 83.0 mg/kg/injection, schedule: Q01DX Z (ip), vehicle: methylcellulose (MC)): 88 % of control | T/C (dose: 125.0 mg/kg/injection, schedule: Q01DX Z (ip), vehicle: methylcellulose (MC)): 100 % of control

Cc1c([N+](=O)[O-])sc2ccccc12
T/C [7]: 97 % of control | T/C [8]: 97 % of control | T/C [9]: 90 % of control

O=C1/C(=C/c2cccc3ccccc23)CCc2ccccc21
T/C [25]: 97 % of control | T/C [26]: 95 % of control | T/C [27]: 97 % of control

O=C(O)CS(=O)(=O)Cc1ccc(Cl)cc1
T/C (dose: 100.0 mg/kg/injection, schedule: Q04DX002 (ip), vehicle: saline with Tween-80): 95 % of control | T/C (dose: 200.0 mg/kg/injection, schedule: Q04DX002 (ip), vehicle: saline with Tween-80): 113 % of control | T/C (dose: 400.0 mg/kg/injection, schedule: Q04DX002 (ip), vehicle: saline with Tween-80): 95 % of control

CSC(C#N)NC(=O)c1ccc([N+](=O)[O-])cc1 (stereo not given)
T/C (dose: 50.0 mg/kg/injection, schedule: Q04DX002 (ip), vehicle: Klucel (hydroxypropylcellulose) (HPC)): 98 % of control | T/C [24]: 97 % of control and 109 % of control | T/C (dose: 200.0 mg/kg/injection, schedule: Q04DX002 (ip), vehicle: Klucel (hydroxypropylcellulose) (HPC)): 98 % of control and 109 % of control

COc1nn(O)cc(C)c1=NC(C)=O
T/C (dose: 12.5 mg/kg/injection, schedule: Q04DX002 (ip), vehicle: saline): 102 % of control | T/C (dose: 25.0 mg/kg/injection, schedule: Q04DX002 (ip), vehicle: saline): 98 % of control | T/C (dose: 50.0 mg/kg/injection, schedule: Q04DX002 (ip), vehicle: saline): 105 % of control

O=I(=O)c1ccccc1
T/C (dose: 25.0 mg/kg/injection, schedule: Q01DX009 (ip), vehicle: saline with Tween-80): 101 % of control | T/C [17]: 103 % of control | T/C [1]: 97 % of control | T/C [2]: 96 % of control

CC(CCc1cccc2ccccc12)C(=O)O (stereo not given)
T/C [21]: 103 % of control | T/C [22]: 100 % of control | T/C [23]: 105 % of control

NC(=O)c1ccc(F)cc1
T/C [25]: 95 % of control | T/C [26]: 104 % of control | T/C [27]: 98 % of control

CCCCCCCCCCSCCSCCCCCCCCCC
T/C [25]: 95 % of control | T/C [2]: 96 % of control | T/C [26]: 101 % of control | T/C [4]: 93 % of control | T/C [27]: 95 % of control | T/C [5]: 89 % of control

C[CH2][Sn]([CH2]C)([CH2]C)[O]c1ccccc1
T/C (dose: 1.56 mg/kg/injection, schedule: Q01DX009 (ip), vehicle: saline with Tween-80): 97 % of control | T/C (dose: 3.12 mg/kg/injection, schedule: Q01DX009 (ip), vehicle: saline with Tween-80): 108 % of control

O=C1c2cccc3cccc(c23)C1(c1ccccc1)c1ccccc1
T/C (dose: 100.0 mg/kg/injection, schedule: Q01DX009 (ip), vehicle: saline): 100 % of control | T/C (dose: 200.0 mg/kg/injection, schedule: Q01DX009 (ip), vehicle: saline): 100 % of control | T/C (dose: 400.0 mg/kg/injection, schedule: Q01DX009 (ip), vehicle: saline): 111 % of control

NC(N)=NN=C1c2ccccc2-c2ccccc21
T/C (dose: 1.0 mg/kg/injection, schedule: Q01DX Z (ip), vehicle: methylcellulose (MC)): 107 % of control | T/C (dose: 2.0 mg/kg/injection, schedule: Q01DX Z (ip), vehicle: methylcellulose (MC)): 102 % of control | T/C (dose: 4.0 mg/kg/injection, schedule: Q01DX Z (ip), vehicle: methylcellulose (MC)): 103 % of control | T/C (dose: 4.0 mg/kg/injection, schedule: Q01DX Z (oral), vehicle: methylcellulose (MC)): 95 % of control | T/C (dose: 8.0 mg/kg/injection, schedule: Q01DX Z (ip), vehicle: methylcellulose (MC)): 107 % of control | T/C (dose: 16.0 mg/kg/injection, schedule: Q01DX Z (oral), vehicle: methylcellulose (MC)): 107 % of control

CC(C)NC(=O)C1C2CC3OC(=O)C1C3C2 (stereo not given)
T/C [18]: 98 % of control | T/C [19]: 98 % of control and 88 % of control | T/C [20]: 101 % of control and 95 % of control
